Results on 27 molecules are retold here after US10092551B2, “Spiro-thiazolones” (Hoffmann-La Roche Inc., priority 2014, dated 2018).

Molecules are shown by their SMILES.

The target of this assay is human V1a receptor (Homo sapiens (Human), UniProt P37288). As to the kind of experiment: human V1a receptor binding studies (3H-Vasopressin, SPA beads). The conditions noted are these: membranes of HEK293 cells transiently transfected with human V1a receptor, Ki by Cheng-Prussoff. The protocol: The human V1a receptor was cloned by RT-PCR from total human liver RNA. The coding sequence was subcloned in an expression vector after sequencing to confirm the identity of the amplified sequence. […] Cell membranes were prepared from HEK293 cells transiently transfected with the expression vector and grown in 20 liter fermenters with the following protocol.
Sequence of human V1a receptor (P37288 whole entry): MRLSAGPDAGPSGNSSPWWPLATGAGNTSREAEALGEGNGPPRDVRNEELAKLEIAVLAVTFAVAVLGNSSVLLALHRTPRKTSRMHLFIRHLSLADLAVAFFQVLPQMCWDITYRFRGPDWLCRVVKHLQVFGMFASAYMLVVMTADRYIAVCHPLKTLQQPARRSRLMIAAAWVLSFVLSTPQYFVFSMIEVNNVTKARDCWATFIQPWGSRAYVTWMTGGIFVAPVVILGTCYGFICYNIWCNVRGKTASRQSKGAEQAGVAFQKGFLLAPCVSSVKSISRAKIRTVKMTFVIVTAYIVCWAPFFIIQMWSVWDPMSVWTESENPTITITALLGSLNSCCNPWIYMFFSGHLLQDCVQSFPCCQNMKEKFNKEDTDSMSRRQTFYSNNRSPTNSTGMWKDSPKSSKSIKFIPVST
50 g of cells are re-suspended in 30 ml freshly prepared ice cold Lysis buffer (50 mM HEPES, 1 mM EDTA, 10 mM MgCl2 adjusted to pH=7.4+complete cocktail of protease inhibitor (Roche Diagnostics)). Homogenized with Polytron for 1 min and sonicated on ice for 2×2 minutes at 80% intensity (Vibracell sonicator). The preparation is centrifuged 20 min at 500 g at 4° C., the pellet is discarded and the supernatant centrifuged 1 hour at 43,000 g at 4° C. (19,000 rpm). The pellet is re-suspended in 12.5 ml Lysis buffer+12.5 ml Sucrose 20% and homogenized using a Polytron for 1-2 min. The protein concentration is determined by the Bradford method and aliquots are stored at −80° C. until use. For binding studies 60 mg Yttrium silicate SPA beads (Amersham) are mixed with an aliquot of membrane in binding buffer (50 mM Tris, 120 mM NaCl, 5 mM KCl, 2 mM CaCl2, 10 mM MgCl2) for 15 minutes with mixing. 50 μl of bead/membrane mixture is then added to each well of a 96 well plate, followed by 50 μl of 4 nM 3H-Vasopressin (American Radiolabeled Chemicals). For total binding measurement 100 μl of binding buffer are added to the respective wells, for non-specific binding 100 μl of 8.4 mM cold vasopressin and for compound testing 100 μl of a serial dilution of each compound in 2% DMSO. The plate is incubated 1 h at room temperature, centrifuged 1 min at 1000 g and counted on a Packard Top-Count. Non-specific binding counts are subtracted from each well and data is normalized to the maximum specific binding set at 100%. To calculate an IC 50 the curve is fitted using a non-linear regression model (XLfit) and the Ki is calculated using the Cheng-Prussoff equation.
Consider `C/C(=C1/SC(N2CCC3(CC2)OCc2ncccc23)=NC1=O)c1ccc(C)nc1` [Example 166, (5E/Z)-5-[1-(6-methylpyridin-3-yl)ethylidene]-2-(1′H,7H-spiro[furo[3,4-b]pyridine-5,4′-piperidin]-1′-yl)-1,3-thiazol-4(5H)-one], for which the “pKi hV1a” value is given as 7.1.

Take `O=C1N=C(N2CCC3(CC2)OCc2ccccc23)SC1=C(c1ccc(Cl)cc1)c1ccc(Cl)cc1` [Example 100, 5-[bis(4-chlorophenyl)methylidene]-2-(1′H,3H-spiro[2-benzofuran-1,4′-piperidin]-1′-yl)-1,3-thiazol-4(5H)-one]: the “pKi hV1a” value was found to be 7.1. In the case of `C/C(=C1/SC(N2CCC3(CC2)OCc2ccccc23)=NC1=O)c1ccncc1F` [Example 158, (5Z)-5-[1-(3-fluoropyridin-4-yl)ethylidene]-2-(1′H,3H-spiro[2-benzofuran-1,4′-piperidin]-1′-yl)-1,3-thiazol-4(5H)-one], the “pKi hV1a” value is recorded as 8.4. Consider `CC/C(=C1\SC(N2CCC3(CC2)OCc2ccccc23)=NC1=O)c1ccncc1` [Example 32, (5E)-5-[1-(pyridin-4-yl)propylidene]-2-(1′H,3H-spiro[2-benzofuran-1,4′-piperidin]-1′-yl)-1,3-thiazol-4(5H)-one], for which the “pKi hV1a” value is recorded as 7.9. Regarding `O=C1N=C(N2CCC3(CC2)OC(=O)c2ccccc23)SC1=C(C1CC1)C1CC1` [Example 139, 1′-[5-(dicyclopropylmethylidene)-4-oxo-4,5-dihydro-1,3-thiazol-2-yl]-3H-spiro[2-benzofuran-1,4′-piperidin]-3-one], the “pKi hV1a” value was found to be 8.5. With `O=C1N=C(N2CCC3(CC2)OCc2ccccc23)SC1=C(c1ccccc1)c1ccccc1` [Example 82, 5-(diphenylmethylidene)-2-(1′H,3H-spiro[2-benzofuran-1,4′-piperidin]-1′-yl)-1,3-thiazol-4(5H)-one], the “pKi hV1a” value is 8.4.

With `O=C1N=C(N2CCC3(CC2)OCc2ccccc23)SC1=C(c1ccc(F)cc1)c1ccc(F)cc1` [Example 101, 5-[bis(4-fluorophenyl)methylidene]-2-(1′H,3H-spiro[2-benzofuran-1,4′-piperidin]-1′-yl)-1,3-thiazol-4(5H)-one], the “pKi hV1a” value is 8.0.

Regarding `C/C(=C1\SC(N2CCC3(CC2)OCc2ccccc23)=NC1=O)c1ccc(C)nc1` [Example 153, (5E)-5-[1-(6-methylpyridin-3-yl)ethylidene]-2-(1′H,3H-spiro[2-benzofuran-1,4′-piperidin]-1′-yl)-1,3-thiazol-4(5H)-one], the “pKi hV1a” value is recorded as 8.3. As for `CC(C)(C)[Si](C)(C)OC/C(=C1/SC(N2CCC3(CC2)OC(=O)c2ccccc23)=NC1=O)c1ccccc1` [Example 140, 1′-[(5E)-5-(2-{[tert-butyl(dimethyl)silyl]oxy}-1-phenylethylidene)-4-oxo-4,5-dihydro-1,3-thiazol-2-yl]-3H-spiro[2-benzofuran-1,4′-piperidin]-3-one], the figure is 8.9; as for `O=C1N=C(N2CCC3(CC2)OCc2ccccc23)S/C1=C1/CCCOC1` [Example 76, (5E/Z)-5-(dihydro-2H-pyran-3(4H)-ylidene)-2-(1′H,3H-spiro[2-benzofuran-1,4′-piperidin]-1′-yl)-1,3-thiazol-4(5H)-one], 7.8. Consider `C/C(=C1/SC(N2CCC3(CC2)OCc2ccccc23)=NC1=O)c1ccccn1` [Example 38, (5Z)-5-[1-(pyridin-2-yl)ethylidene]-2-(1′H,3H-spiro[2-benzofuran-1,4′-piperidin]-1′-yl)-1,3-thiazol-4(5H)-one], for which the “pKi hV1a” value is listed as 8.8. As to `C/C(=C1/SC(N2CCC3(CC2)OCc2cccnc23)=NC1=O)c1ccc(Cl)cc1` [Example 2, (5E/Z)-5-[1-(4-chlorophenyl)ethylidene]-2-(1′H,5H-spiro[furo[3,4-b]pyridine-7,4′-piperidin]-1′-yl)-1,3-thiazol-4(5H)-one], the “pKi hV1a” value is recorded as 9.0. Consider `O=C1N=C(N2CCC3(CC2)OCc2ccccc23)S/C1=C1/CCNC(=O)c2cc(Cl)ccc21` [Example 67, (5E/Z)-8-chloro-5-[4-oxo-2-(1′H,3H-spiro[2-benzofuran-1,4′-piperidin]-1′-yl)-1,3-thiazol-5(4H)-ylidene]-2,3,4,5-tetrahydro-1H-2-benzazepin-1-one], for which the “pKi hV1a” value turned out to be 8.7. Take `O=C1N=C(N2CCC3(CC2)OCc2ccccc23)SC1=C(C1CCCCC1)C1CCCCC1` [Example 125, 5-(dicyclohexylmethylidene)-2-(1′H,3H-spiro[2-benzofuran-1,4′-piperidin]-1′-yl)-1,3-thiazol-4(5H)-one]: the “pKi hV1a” value came to 7.2. On to `C/C(=C1/SC(N2CCC3(CC2)OCc2ccccc23)=NC1=O)c1ccccc1Cl` [Example 14, (5E/Z)-5-[1-(2-chlorophenyl)ethylidene]-2-(1′H,3H-spiro[2-benzofuran-1,4′-piperidin]-1′-yl)-1,3-thiazol-4(5H)-one], for which the “pKi hV1a” value was found to be 8.5. As for `CC(C)(C)[Si](C)(C)OC/C(=C1/SC(N2CCC3(CC2)OCc2ccccc23)=NC1=O)c1ccccc1` [Example 123, (5E)-5-(2-{[tert-butyl(dimethyl)silyl]oxy}-1-phenylethylidene)-2-(1′H,3H-spiro[2-benzofuran-1,4′-piperidin]-1′-yl)-1,3-thiazol-4(5H)-one], the “pKi hV1a” value is 8.5. Regarding `COCC(COC)=C1SC(N2CCC3(CC2)OCc2ncccc23)=NC1=O` [Example 163, 5-(1,3-dimethoxypropan-2-ylidene)-2-(1′H,7H-spiro[furo[3,4-b]pyridine-5,4′-piperidin]-1′-yl)-1,3-thiazol-4(5H)-one], the “pKi hV1a” value was found to be 7.0.

Take `O=C1N=C(N2CCC3(CC2)OCc2ccccc23)S/C1=C(\CO)c1ccccc1` [Example 127, (5Z)-5-(2-hydroxy-1-phenylethylidene)-2-(1′H,3H-spiro[2-benzofuran-1,4′-piperidin]-1′-yl)-1,3-thiazol-4(5H)-one]: the “pKi hV1a” value came out at 9.0.

As for `C/C(=C1/SC(N2CCC3(CC2)OCc2ccccc23)=NC1=O)c1cc(C)on1` [Example 79], the “pKi hV1a” value turned out to be 8.4.

As for `C/C(=C1/SC(N2CCC3(CC2)OC(=O)c2ccccc23)=NC1=O)c1ccccc1` [Example 156, 1′-[(5Z)-4-oxo-5-(1-phenylethylidene)-4,5-dihydro-1,3-thiazol-2-yl]-3H-spiro[2-benzofuran-1,4′-piperidin]-3-one], the “pKi hV1a” value is listed as 9.3. In the case of `C/C(=C1/SC(N2CCC3(CC2)OCc2ccccc23)=NC1=O)c1ccc(Cl)nc1` [Example 96, (5Z)-5-[1-(6-chloropyridin-3-yl)ethylidene]-2-(1′H,3H-spiro[2-benzofuran-1,4′-piperidin]-1′-yl)-1,3-thiazol-4(5H)-one], the “pKi hV1a” value is 9.4.

In the case of `O=C1N=C(N2CCC3(CC2)OCc2ccccc23)SC1=C(CCl)CCl` [Example 113, 5-(1,3-dichloropropan-2-ylidene)-2-(1′H,3H-spiro[2-benzofuran-1,4′-piperidin]-1′-yl)-1,3-thiazol-4(5H)-one], the “pKi hV1a” value was 7.0. Turning to `C/C(=C1/SC(N2CCC3(CC2)OCc2ncccc23)=NC1=O)c1ccc(Cl)nc1` [Example 162, (5E/Z)-5-[1-(6-chloropyridin-3-yl)ethylidene]-2-(1′H,7H-spiro[furo[3,4-b]pyridine-5,4′-piperidin]-1′-yl)-1,3-thiazol-4(5H)-one], the “pKi hV1a” value was determined as 7.9.

As to `O=C1N=C(N2CCC3(CC2)OCc2ccccc23)S/C1=C1/CCc2cc(O)ccc21` [Example 54, (5E/Z)-5-(5-hydroxy-2,3-dihydro-1H-inden-1-ylidene)-2-(1′H,3H-spiro[2-benzofuran-1,4′-piperidin]-1′-yl)-1,3-thiazol-4(5H)-one], the “pKi hV1a” value came to 7.5. Turning to `C/C(=C1/SC(N2CCC3(CC2)OCc2ccccc23)=NC1=O)c1ccc(C)nc1` [Example 7, (5E/Z)-5-[1-(6-methylpyridin-3-yl)ethylidene]-2-(1′H,3H-spiro[2-benzofuran-1,4′-piperidin]-1′-yl)-1,3-thiazol-4(5H)-one], the “pKi hV1a” value is reported as 8.9.

`O=C1N=C(N2CCC3(CC2)OCc2ccccc23)S/C1=C(/c1ccc(Cl)cc1)C(F)(F)F` [Example 17, (5Z)-5-[1-(4-chlorophenyl)-2,2,2-trifluoroethylidene]-2-(1′H,3H-spiro[2-benzofuran-1,4′-piperidin]-1′-yl)-1,3-thiazol-4(5H)-one]: the “pKi hV1a” value is listed as 8.5. With `CC/C(=C1/SC(N2CCC3(CC2)OCc2ccccc23)=NC1=O)c1ccc(Cl)cc1` [Example 24, (5Z)-5-[1-(4-chlorophenyl)propylidene]-2-(1′H,3H-spiro[2-benzofuran-1,4′-piperidin]-1′-yl)-1,3-thiazol-4(5H)-one], the “pKi hV1a” value stood at 9.1.
